Measured values reported in patent publication US5792656A (priority 1995, dated 1998).
Several values for one entry are separate records, joined by “and”; a condition that tells them apart may be missing. Identical values can stand only once. Entries after “also recorded” stand apart in the source; their conditions may differ. Like-named read-outs stand apart in the source and are kept apart here.

Key:
[1] = tested on: hexokinase (low Km Hexokinases I, II, and III); conditions: cited from earlier work
[2] = target: T1, glucokinase, islet isoform (Rattus norvegicus, UniProt P17712); conditions: read-out: Km for glucose; cited from earlier work
T1 sequence (P17712 1-465): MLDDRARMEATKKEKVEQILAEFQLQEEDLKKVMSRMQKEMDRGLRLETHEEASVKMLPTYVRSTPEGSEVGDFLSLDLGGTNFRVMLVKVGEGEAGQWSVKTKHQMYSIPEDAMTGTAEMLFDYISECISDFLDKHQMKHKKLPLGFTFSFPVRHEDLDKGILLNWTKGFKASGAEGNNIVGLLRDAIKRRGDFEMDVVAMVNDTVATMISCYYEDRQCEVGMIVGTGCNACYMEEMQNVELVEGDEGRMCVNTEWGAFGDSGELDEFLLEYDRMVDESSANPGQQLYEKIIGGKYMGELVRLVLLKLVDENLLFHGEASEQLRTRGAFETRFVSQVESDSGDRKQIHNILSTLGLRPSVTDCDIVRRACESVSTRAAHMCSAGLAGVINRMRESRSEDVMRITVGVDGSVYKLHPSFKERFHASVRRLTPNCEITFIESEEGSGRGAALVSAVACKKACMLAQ

[3] = tested on: GLUT-2 transfected AtT-20ins cells (line CGT-6); test: cells; conditions: Mus musculus, 3 h, read-out: maximal stimulation of insulin release relative to 0 mM glucose
Description: (§1) Parental or GLUT-2 transfected lines CGT-5 and CGT-6 were removed from growth plates by light trypsinization and replanted in 6 well dishes (Costar) at a density of 5×10^5 cells per well. The cells were then grown for three days in culture media containing 1 mM (see above). […] Cells were incubated with secretagogues for 3 hours, after which media was collected for insulin radioimmunoassay.

[4] = tested on: RIN 1046-38 cells; conditions: RIN 1046-38 cells (Clark, et al., 1990); cited from earlier work
[5] = target: T2, glucokinase, liver isoform (Rattus norvegicus, UniProt P17712); conditions: read-out: Km for glucose; cited from earlier work
T2 sequence (P17712 1-465 isoform P17712-3): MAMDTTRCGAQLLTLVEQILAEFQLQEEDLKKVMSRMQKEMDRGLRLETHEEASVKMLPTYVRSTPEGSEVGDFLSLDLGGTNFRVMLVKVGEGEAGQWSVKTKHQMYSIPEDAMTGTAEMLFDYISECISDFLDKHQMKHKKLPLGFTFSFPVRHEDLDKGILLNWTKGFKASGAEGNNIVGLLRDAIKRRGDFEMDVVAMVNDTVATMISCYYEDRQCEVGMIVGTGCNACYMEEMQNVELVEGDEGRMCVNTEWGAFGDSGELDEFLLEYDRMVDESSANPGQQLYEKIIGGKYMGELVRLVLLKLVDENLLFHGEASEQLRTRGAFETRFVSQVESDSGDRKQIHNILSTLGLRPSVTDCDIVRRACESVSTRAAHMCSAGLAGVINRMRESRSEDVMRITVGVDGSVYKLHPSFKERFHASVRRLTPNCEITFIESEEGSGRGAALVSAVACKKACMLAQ

[6] = target: T3, GLUT-1 low Km glucose transporter of untransfected parental AtT-20ins cells (Mus musculus, UniProt P17809); test: Glucose transport (3-O-methyl glucose uptake) in untransfected parental AtT-20ins cells; format: cell-based; conditions: untransfected parental AtT-20ins line
T3 sequence (P17809 1-492): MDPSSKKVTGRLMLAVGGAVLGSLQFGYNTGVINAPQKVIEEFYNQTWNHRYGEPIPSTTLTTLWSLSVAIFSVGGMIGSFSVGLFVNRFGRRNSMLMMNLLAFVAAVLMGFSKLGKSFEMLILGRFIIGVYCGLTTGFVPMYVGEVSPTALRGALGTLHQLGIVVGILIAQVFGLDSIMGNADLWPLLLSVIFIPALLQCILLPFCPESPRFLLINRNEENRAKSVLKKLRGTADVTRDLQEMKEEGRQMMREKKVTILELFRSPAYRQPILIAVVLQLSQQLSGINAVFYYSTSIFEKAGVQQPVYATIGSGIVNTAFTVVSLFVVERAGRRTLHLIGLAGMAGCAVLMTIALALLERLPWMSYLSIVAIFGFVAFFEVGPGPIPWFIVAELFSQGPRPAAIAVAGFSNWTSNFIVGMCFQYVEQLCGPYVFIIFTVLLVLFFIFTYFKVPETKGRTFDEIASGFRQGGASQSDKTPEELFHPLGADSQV

[7] = target: T4, glucokinase (Hexokinase IV) (Homo sapiens, UniProt P35557); conditions: read-out: Km for glucose; cited from earlier work
T4 sequence (P35557 1-465): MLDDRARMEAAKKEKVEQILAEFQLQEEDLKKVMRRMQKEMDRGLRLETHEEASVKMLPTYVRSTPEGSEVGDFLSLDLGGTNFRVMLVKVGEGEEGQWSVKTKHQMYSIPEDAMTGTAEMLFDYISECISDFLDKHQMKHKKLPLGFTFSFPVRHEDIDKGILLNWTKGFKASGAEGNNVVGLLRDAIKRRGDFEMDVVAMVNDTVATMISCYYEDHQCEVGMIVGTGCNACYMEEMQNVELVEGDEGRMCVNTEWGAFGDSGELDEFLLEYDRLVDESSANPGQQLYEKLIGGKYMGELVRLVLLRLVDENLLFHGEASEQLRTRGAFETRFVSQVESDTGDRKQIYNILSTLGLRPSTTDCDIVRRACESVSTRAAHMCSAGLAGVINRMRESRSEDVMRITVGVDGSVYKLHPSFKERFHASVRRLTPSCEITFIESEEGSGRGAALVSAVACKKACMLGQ

[8] = tested on: parental AtT-20ins cells; test: Insulin secretion, static 3 hour incubation, parental cells; format: cell-based; conditions: 0-20 mM glucose, 3 hours static incubation
Description: as §1

[9] = target: T5, high Km glucose transport activity (GLUT-2) of isolated, dispersed islets of Langerhans (Rattus norvegicus, UniProt P12336); conditions: cited from earlier work
T5 construct: host or cells: isolated, dispersed islets of Langerhans (Johnson et al., 1990a)
T5 sequence (P12336 1-522): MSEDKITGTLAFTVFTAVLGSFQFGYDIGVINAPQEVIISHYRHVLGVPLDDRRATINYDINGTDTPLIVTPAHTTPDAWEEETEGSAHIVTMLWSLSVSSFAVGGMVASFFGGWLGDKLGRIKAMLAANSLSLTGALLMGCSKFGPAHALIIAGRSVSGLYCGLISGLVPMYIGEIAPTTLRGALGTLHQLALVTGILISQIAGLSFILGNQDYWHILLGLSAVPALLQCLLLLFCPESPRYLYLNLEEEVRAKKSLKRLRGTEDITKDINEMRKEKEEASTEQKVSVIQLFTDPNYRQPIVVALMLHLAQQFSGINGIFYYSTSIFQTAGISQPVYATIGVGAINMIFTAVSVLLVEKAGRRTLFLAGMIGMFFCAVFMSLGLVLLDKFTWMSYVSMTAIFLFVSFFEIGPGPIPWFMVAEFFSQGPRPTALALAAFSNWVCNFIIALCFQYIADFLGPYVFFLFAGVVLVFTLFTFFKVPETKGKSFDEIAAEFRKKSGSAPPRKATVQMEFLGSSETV

[10] = target: T6, rat islet GLUT-2 glucose transporter expressed in AtT-20ins cells (lines CGT-5, CGT-6) (Rattus norvegicus, UniProt P12336)
T6 sequence (P12336 1-522): T5 sequence (P12336 1-522)

[11] = tested on: CGT-6 (GLUT-2 expressing AtT-20ins) cells; test: cells
Description: Insulin secretion from CGT-6 (GLUT-2,expressing AtT-20ins) cells was evaluated using a column perfusion technique (Knudsen et al., 1983). Cells were grown in liquid culture on microcarrier beads (InvitroGen). Approximately 50×10^6 cells were harvested by gentle centrifugation (500 rpm in a Sorvall RT6000B desk top centrifuge), resuspended in 4ml Krebs-Ringer salt (KRS) solution, pH 7.4, and loaded onto a Pharmacia P10/10 column. A cell count was obtained immediately before loading the column in the following manner. An aliquot of cells was taken, the beads digested with 1.2 U/ml Dispase (Boehringer Mannheim), the cell clumps were dispersed by extrusion through a 25 gauge needle and the cells were counted directly.
After the beads settled in the column, the top plunger of the column was gently inserted and the whole apparatus was submerged in a 37° C. water bath. The cells were then perifused as described below.

[12] = substrate: OC[C@H]1OC(O)[C@H](O)[C@@H](O)[C@@H]1O; test: cells, lysate or membranes; conditions: 3-O-methyl glucose uptake, 37.0 °C
[13] = lines CGT-5, CGT-6 stated together, 3-O-methyl glucose uptake

## O=P(O)(O)OC[C@H]1OC(O)[C@H](O)[C@@H](O)[C@@H]1O (some centres unmarked) [glucose-6-phosphate, reference compound]
[1]; 10 mM glucose-6-phosphate
  inhibition of hexokinase by glucose-6-phosphate: potently inhibits; also recorded: potent inhibitor

## OC[C@H]1OC(O)[C@H](O)[C@@H](O)[C@@H]1O (some centres unmarked) [glucose]
[2]
  Km: 8 to 10 mM and ~10 mM
[1]; read-out: Km for glucose, Hexokinases I, II, and III
  Km: ~0.05 mM
[3]
  maximal fold induction: ~2.5
[4]
  glucose concentration at which stimulation of insulin release is maximal: 0.5 mM
[5]
  Km: 8 to 10 mM
[6]
  Vmax: 0.5 mmoles/min/liter cell space
[7]
  Km: ~8 mM and 8 to 10 mM
[8]
  effect of glucose on insulin release: no significant effect
[9]; dispersed islets (Johnson, et al., 1990a)
  Vmax: 24 mmoles/min/liter cell space
[9]; read-out: Km for glucose, dispersed islets (Johnson, et al., 1990a)
  Km: 18 mM
[10]; line CGT-5, Lineweaver-Burke analysis
  Vmax: 25 mmoles/min/liter cell space
[10]; line CGT-6, Lineweaver-Burke analysis
  Vmax: 17 mmoles/min/liter cell space
[10]; [13]
  Vmax: 19 mmoles/min/liter cell space
  estimated Km for glucose: 18 mM
[11]; 5 min, read-out: insulin secretion second plateau above pre-glucose level
  fold induction at 5000 µM: 3
[11]; read-out: increase in insulin release, first phase, over baseline without glucose
  fold induction at 5000 µM: 10

B1: GLUT-1 low Km glucose transporter of untransfected parental AtT-20ins cells (Mus musculus) (protein)
chain: T3 sequence (P17809 1-492)
[12]; other: untransfected parental AtT-20ins line
  Km: 2 mM

B2: rat islet GLUT-2 glucose transporter expressed in AtT-20ins cells (lines CGT-5, CGT-6) (Rattus norvegicus) (protein)
chain: T5 sequence (P12336 1-522)
[12]; other: line CGT-5, Lineweaver-Burke analysis
  Km: 16 mM
[12]; other: line CGT-6, Lineweaver-Burke analysis
  Km: 17 mM
